Counter-ions that a name gives are not always drawn.
Test system: Acinetobacter baumannii ATCC 17978
Experiment: Antimicrobial susceptibility testing: 90% growth inhibitory concentration (IC90) determination
Format: cell-based
Settings: 90% growth inhibitory concentration; Acinetobacter baumannii ATCC17978; Iso-Sensitest broth, OD 600 nm over 16h; read-out: ATCC17978 IC90
Summary of the method: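 Compounds serially twofold diluted (e.g. 50 to 0.097 μM final) in Iso-Sensitest broth, inoculated at ~5×10^(5) CFU/ml, incubated at 35±2° C. OD600 read every 20 minutes over 16h. IC90 taken as concentration inhibiting 90% of growth during logarithmic phase.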

SMILES | IC90
CCc1cc(Nc2nccn3c(-c4ccc(OC)c(F)c4F)cnc23)ccc1C(=O)NCCCCCCCCN [Example 540, N-(8-aminooctyl)-4-((3-(2,3-difluoro-4-methoxyphenyl)imidazo[1,2-a]pyrazin-8-yl)amino)-2-ethylbenzamide hydrochloride] | 0.1 µM
COc1ccc(-c2cnc3c(Nc4ccc(C(=O)N(C)CC5CNC5)c(C)c4)nccn23)cc1F [Example 384, N-(azetidin-3-ylmethyl)-4-[[3-(3-fluoro-4-methoxyphenyl)imidazo[1,2-a]pyrazin-8-yl]amino]-N,2-dimethylbenzamide] | 0.88 µM

Same assay, conditions: Acinetobacter baumannii, ATCC17978, 16 h, 90% growth inhibitory concentration; Acinetobacter baumannii ATCC17978; Iso-Sensitest broth, OD 600 nm over 16h; read-out: ATCC17978 IC90

SMILES | IC90
COc1ccc(-c2cnc3c(Nc4ccc(C(=O)NCC5(O)CCNCC5)c(C)c4)nccn23)cc1F [Example 285, 4-[[3-(3-fluoro-4-methoxyphenyl)imidazo[1,2-a]pyrazin-8-yl]amino]-N-[(4-hydroxypiperidin-4-yl)methyl]-2-methylbenzamide;2,2,2-trifluoroacetic acid] | 2.6 µM
COc1ccc(-c2cnc3c(Nc4ccc(C(=O)N(C)C)c(C)c4)nccn23)cc1 [Example 13, 4-((3-(4-methoxyphenyl)imidazo [1,2-a]pyrazin-8-yl)amino)-N,N,2-trimethylbenzamide] | 0.24 µM
Cc1cc(Nc2nccn3c(-c4ccc(OC(F)F)cc4)cnc23)ccc1C(=O)N(C)CCN1C[C@@H](C)O[C@@H](C)C1 [Example 256, 4-[[3-[4-(difluoromethoxy)phenyl]im-idazo[1,2-a]pyrazin-8-yl]amino]-N,2-dimethyl-N-[2-[rac-(2R,6S)-2,6-dimethylmorpholin-4-yl]ethyl]benzamide] | 1.9 µM
COc1ccc(-c2cnc3c(Nc4ccc(C(=O)NCCCN5CCNC(C(=O)O)C5)c(C)c4)nccn23)cc1F (stereo not drawn) [Example 2, 4-(3-(4-((3-(3-fluoro-4-methoxyphenyl)imidazo [1,2-a]pyrazin-8-yl)amino)-2-methylbenzamido)propyl) piperazine-2-carboxylic acid] | 4.6 µM
COc1ccc(-c2cnc3c(Nc4ccc(C(=O)N(C)C)cc4)nccn23)c(F)c1F [Example 107, 4-[[3-(2,3-difluoro-4-methoxy-phenyl)imidazo[1,2-a]pyrazin-4-yl]amino]-N,N-dimethyl-benzamide] | 0.12 µM
CCc1cc(Nc2nccn3c(-c4ccc(OC)c(F)c4F)cnc23)ccc1C(=O)NCC(O)CNC(=O)CCN (stereo not drawn) [Example 146, N-[3-(3-aminopropanoyl-amino)-2-hydroxy-propyl]-4-[[3-(2,3-difluoro-4-methoxy-phenyl)imidazo[1,2-a]pyrazin-8-yl]amino]-2-ethyl-benzamide hydrochloride] | 0.19 µM
CCc1cc(Nc2nccn3c(-c4ccc(OC(F)F)cc4)cnc23)ccc1C(=O)NC [Example 183, 4-[[3-[4-(difluoromethoxy)phenyl]im-idazo[1,2-a]pyrazin-8-yl]amino]-2-ethyl-N-methylbenzamide] | 0.19 µM
CCc1cc(Nc2nccn3c(-c4ccc(OC)c(F)c4F)cnc23)ccc1C(=O)NCCCCCC(=O)N1CCN[C@H](CO)C1 [Example 162, 4-[[3-(2,3-difluoro-4-methoxy-phenyl)imidazo[1,2-a]pyrazin-8-yl]amino]-2-ethyl-N-[6-[(3S)-3-(hydroxymethyl)piperazin-1-yl]-6-oxo-hexyl]benzamide] | 0.08 µM
COc1ccc(-c2cnc3c(Nc4ccc(C(=O)NCCCN5CCS(=O)(=O)CC5)c(C)c4)nccn23)cc1F [Example 36, N-[3-(1,1-dioxo-1,4-thiazinan-4-yl)propyl]-4-[[3-(3-fluoro-4-methoxy-phenyl)imidazo[1,2-a]pyrazin-8-yl]amino]-2-methyl-benzamide; 2,2,2-trifluoroacetic acid] | 0.46 µM

Results, then the compound that gave them:

IC90 | SMILES
0.69 µM | Cc1cc(Nc2nccn3c(-c4ccc(OC(F)F)cc4)cnc23)ccc1C(=O)N(C)CCC1CCN(CCC#N)CC1 [Example 309, N-[2-[1-(2-cyanoethyl)piperidin-4-yl]ethyl]-4-[[3-[4-(difluoromethoxy)phenyl]im-idazo[1,2-a]pyrazin-8-yl]amino]-N,2-dimethylbenzamide]
0.23 µM | CCc1cc(Nc2nccn3c(-c4ccc(OC)c(F)c4F)cnc23)ccc1C(=O)NCC(=O)NCCN [Example 430, N-[2-(2-aminoethylamino)-2-oxo-ethyl]-4-[[3-(2,3-difluoro-4-methoxy-phenyl)imidazo[1,2-a]pyrazin-8-yl]amino]-2-ethyl-benzamide; formic acid]
0.21 µM | Cc1cc(Nc2nccn3c(-c4ccc(OCC#N)c(F)c4F)cnc23)ccc1C(=O)NC[C@@H](N)CNC(=O)[C@@H]1C[C@@H](O)CN1 [Example 473, (2S,4R)-N-[(2R)-2-amino-3-[[4-[[3-[4-(cyanomethoxy)-2,3-difluoro-phenyl]imidazo[1,2-a]pyrazin-8-yl]amino]-2-methyl-benzoyl]amino]propyl]-4-hydroxy-pyrrolidine-2-carboxamide; formic acid]
0.171 µM | COc1ccc(-c2cnc3c(Nc4ccc(C(=O)NCCCCCCCN)c(Cl)c4)nccn23)c(F)c1F [Example 518, N-(7-aminoheptyl)-2-chloro-4-((3-(2,3-difluoro-4-methoxyphenyl)imidazo[1,2-a]pyrazin-8-yl)amino)benzamide hydrochloride]
0.085 µM | CCc1cc(Nc2nccn3c(-c4ccc(OC)c(F)c4F)cnc23)ccc1C(=O)NCCCCCCn1ccnc1 [Example 535, N-(6-(1H-imidazol-1-yl)hexyl)-4-((3-(2,3-difluoro-4-methoxyphenyl)imidazo[1,2-a]pyrazin-8-yl)amino)-2-ethylbenzamide]
0.14 µM | C=CCNC(=O)c1ccc(Nc2nccn3c(-c4ccc(OC)c(F)c4F)cnc23)cc1CC [Example 329, 4-[[3-(2,3-difluoro-4-methoxyphenyl)imidazo[1,2-a]pyrazin-8-yl]amino]-2-ethyl-N-prop-2-enylbenzamide]
0.12 µM | COc1ccc(-c2cnc3c(Nc4ccc(C(=O)N[C@@H](C)CNC(C)=N)c(Cl)c4)nccn23)c(F)c1F [Example 487, 2-chloro-4-[[3-(2,3-difluoro-4-methoxyphenyl)imidazo[1,2-a]pyrazin-8-yl]amino]-#N!- [(2#S!)-1-(ethanimidoylamino)propan-2-yl]benzamide;formic acid]
0.59 µM | CCc1cc(Nc2nccn3c(-c4ccc(OC)c(F)c4F)cnc23)ccc1C(=O)NCC[C@@H](C)NC(=O)[C@@H](N)CCCNC(=N)N [Example 340, N-[(3R)-3-[[(2S)-2-amino-5-carbamimidamidopentanoyl]amino]butyl]-4-[[3-(2,3-difluoro-4-methoxyphenyl)imidazo[1,2-a]pyrazin-8-yl]amino]-2-ethylbenzamide; hydrochloride]
0.27 µM | CCc1cc(Nc2nccn3c(-c4ccc(OC)c(F)c4F)cnc23)ccc1C(=O)NCCC1CCN(CCC(=O)O)CC1 [Example 301, 3-[4-[2-[[4-[[3-(2,3-difluoro-4-methoxyphenyl)imidazo[1,2-a]pyrazin-8-yl]amino]-2-ethylbenzoyl]amino]ethyl]piperidin-1-yl]propanoic acid]
0.21 µM | CCc1cc(Nc2nccn3c(-c4ccc(Oc5ccccn5)c(F)c4F)cnc23)ccc1C(=O)NC [Example 472, 4-[[3-[2,3-difluoro-4-(2-pyridyloxy)phenyl]imidazo [1,2-a]pyrazin-8-yl]amino]-2-ethyl-N-methyl-benzamide]
